Assay results as given in PubChem BioAssay (NCI).
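In this assay, cells in 96-well plates receive the compound at five concentrations for 48 hours. Endpoints are linearly interpolated between the surrounding concentrations. At the GI50, growth is halved. Definition used: TGI = concentration required for complete inhibition of growth.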

Assays:
Assay in all cases: NCI-60 cell line screen, 48 h
CAKI-1 renal = test system: CAKI-1 renal
CCRF-CEM leukemia = test system: CCRF-CEM leukemia
MCF7 breast = test system: MCF7 breast
EKVX NSCLC = test system: EKVX NSCLC
OVCAR-5 ovarian = test system: OVCAR-5 ovarian
NCI-H522 lung = test system: NCI-H522 lung
UACC-62 melanoma = test system: UACC-62 melanoma
NCI-H460 lung = test system: NCI-H460 lung
M14 melanoma = test system: M14 melanoma
NCI/ADR-RES ovarian = test system: NCI/ADR-RES ovarian

SMILES | TGI (CAKI-1 renal) | TGI (CCRF-CEM leukemia) | TGI (MCF7 breast) | TGI (EKVX NSCLC) | TGI (OVCAR-5 ovarian) | TGI (NCI-H522 lung) | TGI (UACC-62 melanoma) | TGI (NCI-H460 lung) | TGI (M14 melanoma) | TGI (NCI/ADR-RES ovarian) | GI50 (MCF7 breast) | GI50 (EKVX NSCLC) | GI50 (NCI-H522 lung)
CC(C)(C)C(=O)O[C@H]1C=C[C@@H](O)[C@@H]2[C@H]1[C@@H]1C=C[C@H]2C1 | > 100 µM | > 100 µM | 39.9 µM | > 100 µM | 6.42 µM | 79.8 µM | > 100 µM | > 100 µM | > 100 µM | 96.1 µM | – | – | –
CCC1(O)CC(O)c2c(O)c3c(c(O)c2C1C(=O)OC)C(=O)c1cccc(O)c1C3=O (stereo not drawn) | 15.3 µM | 9.71 µM | 16.9 µM | 6.65 µM | 21 µM | 4.96 µM | 12.4 µM | 14.2 µM | 14.1 µM | 3.28 µM | – | – | –
C=C(C)C(=O)O[C@H]1CC2(CO)O[C@@H]2CC/C(COC(C)=O)=C/C2OC(=O)C(=C)[C@@H]21 (stereo partly drawn) | > 58.8 µM | 39.3 µM | 57.7 µM | > 100 µM | > 100 µM | 31.6 µM | > 100 µM | > 100 µM | 49.1 µM | > 100 µM | – | – | –
O=C(c1ccccc1)c1ccc2nc(-c3c(Cl)c(Cl)c(Cl)c(Cl)c3C(=O)Nc3ccco3)[nH]c2c1 | > 100 µM | > 100 µM | > 100 µM | > 100 µM | > 100 µM | 81.4 µM | > 100 µM | > 100 µM | > 100 µM | 62.4 µM | – | – | –
C#Cc1cccc(Nc2ncnc3cc(OCCOC)c(OCCOC)cc23)c1 | 10 µM | > 100 µM | > 100 µM | > 93.7 µM | > 100 µM | 27.1 µM | 38 µM | > 91.4 µM | > 100 µM | > 100 µM | > 100 µM | 0.301 µM | 0.901 µM
COc1ccc(/C=N/N=C(\N)NO)c(OC)c1OC | > 100 µM | 76.1 µM | > 100 µM | > 100 µM | > 100 µM | > 100 µM | > 100 µM | > 100 µM | > 100 µM | 35.4 µM | – | – | –
COc1cccc(OC/C(N=Cc2ccncc2)=N/NC(=O)c2ccncc2)c1 | > 100 µM | > 100 µM | > 100 µM | > 100 µM | > 100 µM | > 100 µM | > 100 µM | > 100 µM | > 100 µM | > 100 µM | – | – | –
O=c1[nH]nc(N/N=C\c2ccc(Cl)cc2)c2ccccc12 | 34 µM | > 100 µM | 64 µM | > 100 µM | 31.8 µM | 48 µM | 39.4 µM | 47.9 µM | 35.4 µM | 39 µM | – | – | –
C/C(=C\COP(=O)(O)OP(=O)(O)O)CC/C=C(\C)CNc1ccccc1 | > 50 µM | 10.3 µM | > 50 µM | > 50 µM | > 50 µM | > 50 µM | > 50 µM | > 50 µM | > 50 µM | > 50 µM | – | – | –
Cc1sc2nc3n(sc4nc5sc(C)c(C)c5c(=O)n43)c(=O)c2c1C | > 100 µM | 45.1 µM | > 100 µM | 98.4 µM | > 100 µM | 32 µM | 87.6 µM | > 100 µM | > 100 µM | > 100 µM | – | – | –
CCOC(=O)NC(OCc1ccccc1)(C(=O)OC)C(F)(F)F (stereo not drawn) | 87.1 µM | > 100 µM | > 100 µM | > 100 µM | > 100 µM | > 100 µM | > 100 µM | > 100 µM | > 100 µM | > 100 µM | – | – | –
C=C1CC(Cn2cc(Br)c(=O)[nH]c2=O)(c2ccc(Br)cc2)OC1=O (stereo not drawn) | 7.13 µM | 5.26 µM | 14.4 µM | 39.7 µM | 22.5 µM | 3.19 µM | 9.46 µM | 35.6 µM | 3.22 µM | 15.9 µM | – | – | –
CN1CCCC(OC(=O)c2cc3cc(CCl)ccc3oc2=O)C1 (stereo not drawn) | 60.5 µM | 55 µM | 50.1 µM | 91.5 µM | 43.4 µM | 34.7 µM | 31.6 µM | 44.9 µM | 39.3 µM | 87 µM | – | – | –
CCOC(=O)c1nc2ccccc2nc1Nc1ccc(F)cc1 | > 100 µM | > 100 µM | > 100 µM | > 68.7 µM | > 100 µM | > 100 µM | > 100 µM | > 100 µM | > 100 µM | > 100 µM | – | – | –
Cc1cn(C2CC(SCCO)C(CO)O2)c(=O)[nH]c1=O (stereo not drawn) | > 100 µM | > 100 µM | > 100 µM | > 100 µM | > 100 µM | > 100 µM | > 100 µM | > 100 µM | > 100 µM | > 100 µM | – | – | –
CN(c1ccc(Cl)cc1)S(=O)(=O)c1ccccc1 | > 100 µM | > 100 µM | > 100 µM | > 100 µM | > 100 µM | > 100 µM | > 100 µM | > 100 µM | > 100 µM | > 100 µM | – | – | –
